Assay results as given in patent US12344597B2, “Alkoxy-substituted pyridinyl derivatives as LPA1 receptor antagonists and their use in the treatment of fibrosis” (IDORSIA PHARMACEUTICALS LTD, priority 2018, dated 2025).

Experiments:
[1] = test system: LPA-induced skin vascular leakage; assay: mouse LPA-induced skin vascular leakage model; type: in vivo; settings: mice, oral administration of 100 mg/kg, LPA-induced vascular leakage (Evans blue)
Method: Assessment of In Vivo Potency
The in vivo potency of the compounds of formulae (I), (II) and (III) can be determined using a mouse LPA-induced skin vascular leakage model. Female Balb/c mice are treated with either vehicle or test compound (p.o.) for at least 1 h prior to administration of the albumin marker Evans blue (50 mg/kg, i.v., 0.9% NaCl) and subsequent challenge with LPA (5 μg, i.d.). After 30 minutes, mice are sacrificed by CO2 inhalation. Discs of skin from the injection sites are removed, digested in formamide (500 μl, 37° C., 24 hrs) and the content of Evans blue quantified by colorimetric assay. Results are expressed as extravasated Evans blue per skin disc (μg/disc).
As an example, the compound of Ex 12-21 is able to effectively reduce LPA-induced vascular leakage after oral administration of 100 mg/kg to mice as compared to a group of animals treated with vehicle only. Reduction of vascular leakage compared to vehicle group was ≥60%.

human LPA1 receptor = human LPA1 receptor (Homo sapiens (Human), UniProt Q92633); assay: Beta-arrestin recruitment assay to determine IC50 values for human LPAR1; type: cell-based; settings: antagonist mode, Tango EDG2-bla U2OS cells, LPA 18:1 500 nM final
Outline: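 Tango EDG2-bla U2OS cells: LPA-driven beta-arrestin/TEV protease recruitment releases Gal4-VP16, inducing beta-lactamase reporter read with live-cell substrate. Cells seeded 20 h at 37 °C beforehand. IC50 is antagonist concentration inhibiting 50% of maximal response.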

Chain of human LPA1 receptor (Q92633 whole entry, the tested form may be a part): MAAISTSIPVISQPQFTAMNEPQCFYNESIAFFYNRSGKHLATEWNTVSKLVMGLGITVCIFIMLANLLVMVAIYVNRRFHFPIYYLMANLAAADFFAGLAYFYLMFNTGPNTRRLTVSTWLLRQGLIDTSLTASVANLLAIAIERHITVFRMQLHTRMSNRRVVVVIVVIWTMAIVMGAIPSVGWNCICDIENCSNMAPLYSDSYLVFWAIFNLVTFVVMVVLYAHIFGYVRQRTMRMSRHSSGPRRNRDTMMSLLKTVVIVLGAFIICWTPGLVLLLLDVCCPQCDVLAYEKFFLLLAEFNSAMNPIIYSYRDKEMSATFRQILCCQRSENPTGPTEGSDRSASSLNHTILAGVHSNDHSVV

| SMILES | Reduction of vascular leakage compared to vehicle group [1] [%] | IC50 (human LPA1 receptor) [µM] |
| --- | --- | --- |
| Cc1ccc(NC(=O)C2(c3ccccc3C(C)C)CN(C(=O)Cn3nccn3)C2)c(OC(F)F)n1 [Ex 12-21, 1-(2-(2H-1,2,3-triazol-2-yl)acetyl)-N-(2-(difluoromethoxy)-6-methylpyridin-3-yl)-3-(2-isopropylphenyl)azetidine-3-carboxamide] | ≥ 60 | 0.0056 |
| Cc1ccc(NC(=O)C2(c3ccccc3C(C)C)CCN(C(=O)NCCO)CC2)c(OC(F)F)n1 [Ex 17-22, N4-(2-(difluoromethoxy)-6-methylpyridin-3-yl)-N1-(2-hydroxyethyl)-4-(2-isopropylphenyl)piperidine-1,4-dicarboxamide] |  | 0.009 |
| Cc1ccc(NC(=O)C2(c3ccccc3C(C)C)CN(C(=O)N3CCOCC3)C2)c(OC(F)F)n1 [Ex 17-27, N-(2-(difluoromethoxy)-6-methylpyridin-3-yl)-3-(2-isopropylphenyl)-1-(morpholine-4-carbonyl)azetidine-3-carboxamide] |  | 0.21 |
| CC(C)c1ccccc1C1(C(=O)Nc2ncc(Cl)cc2OC(F)F)CN(CCC(C)(C)C(=O)O)C1 [Ex 78-2, 4-(3-((5-chloro-3-(difluoromethoxy)pyridin-2-yl)carbamoyl)-3-(2-isopropylphenyl)azetidin-1-yl)-2,2-dimethylbutanoic acid] |  | 0.017 |
| COCCN(CC(=O)OC)CC(=O)N1CC(C(=O)Nc2ccc(C)nc2OC(F)F)(c2ccccc2C(C)C)C1 [Ex 54, methyl N-(2-(3-((2-(difluoromethoxy)-6-methylpyridin-3-yl)carbamoyl)-3-(2-isopropylphenyl)azetidin-1-yl)-2-oxoethyl)-N-(2-methoxyethyl)glycinate] |  | 0.069 |
| Cc1ccc(NC(=O)C2(c3ccccc3C(C)C)CN(C(=O)CN3CCC(C(=O)O)CC3)C2)c(OC(F)F)n1 [Ex 48, 1-(2-(3-((2-(difluoromethoxy)-6-methylpyridin-3-yl)carbamoyl)-3-(2-isopropylphenyl)azetidin-1-yl)-2-oxoethyl)piperidine-4-carboxylic acid] |  | 0.103 |
